The assay has as its target T1, Tyrosine-protein phosphatase non-receptor type 1 (Homo sapiens, UniProt P18031).
T1 sequence (P18031 whole entry): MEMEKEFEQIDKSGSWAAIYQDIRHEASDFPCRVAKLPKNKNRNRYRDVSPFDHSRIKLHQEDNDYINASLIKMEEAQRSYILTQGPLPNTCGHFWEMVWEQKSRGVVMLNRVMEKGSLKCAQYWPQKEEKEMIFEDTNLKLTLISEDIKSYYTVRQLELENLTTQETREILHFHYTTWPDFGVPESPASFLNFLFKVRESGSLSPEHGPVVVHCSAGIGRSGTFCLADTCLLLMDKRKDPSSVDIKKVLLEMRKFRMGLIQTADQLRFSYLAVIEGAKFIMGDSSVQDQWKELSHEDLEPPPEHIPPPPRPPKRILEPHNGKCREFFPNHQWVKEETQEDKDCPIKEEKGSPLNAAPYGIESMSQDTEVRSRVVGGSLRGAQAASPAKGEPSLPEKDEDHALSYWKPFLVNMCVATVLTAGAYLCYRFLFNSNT
As to the kind of experiment: Inhibition of human recombinant PTP1B.
With `CC(C)=CCC/C(C)=C/Cc1c(O)cc(O)cc1-c1cc2ccc(O)cc2o1` [ALBAFURAN A], the IC50 was determined as 9.2 µM.

Regarding `CC(C)=CCc1c(O)cc(C(=O)[C@H]2[C@@H](c3c(O)ccc(C(=O)/C=C/c4ccc(O)cc4O)c3O)C=C(C)C[C@@H]2c2ccc(O)cc2O)cc1O` [KUWANON J], the IC50 stood at 2.7 µM. Take `CC(C)=CCc1c(O)cc(C(=O)[C@H]2[C@@H](c3c(O)ccc(C(=O)/C=C/c4ccc(O)cc4)c3O)C=C(C)C[C@@H]2c2ccc(O)cc2O)cc1O` [KUWANON R]: the IC50 was 8.2 µM. Turning to `CC(C)=CCc1c(O)cc(C(=O)[C@H]2[C@@H](c3c(O)ccc(C(=O)/C=C/c4ccc(O)cc4)c3O)C=C(C)C[C@@H]2c2ccc(O)cc2)cc1O` [KUWANON V], the half-maximal inhibitory concentration (IC50) is 13.8 µM. With `CC(C)=CCC/C(C)=C/Cc1c(O)ccc2cc(-c3cc(O)cc(O)c3CC=C(C)C)oc12` [MULBERROFURAN D] the figure was 4.3 µM; with `CC(C)=CCC/C(C)=C\CC/C(C)=C\Cc1c(O)cc(O)cc1-c1cc2ccc(O)cc2o1` [MULBERROFURAN W], 2.7 µM.

A word on the IC50: it is the concentration needed to halve the response being measured.
